pIC50: −log10 of the molar value.
Target: Rho-associated protein kinase 2 (Homo sapiens, UniProt O75116)
Experiment: Inhibition of ROCK2 (unknown origin) using FITC-AHA-AKRRRLSSLRA-OH substrate and ATP

Rho-associated protein kinase 2, sequence (O75116 whole entry): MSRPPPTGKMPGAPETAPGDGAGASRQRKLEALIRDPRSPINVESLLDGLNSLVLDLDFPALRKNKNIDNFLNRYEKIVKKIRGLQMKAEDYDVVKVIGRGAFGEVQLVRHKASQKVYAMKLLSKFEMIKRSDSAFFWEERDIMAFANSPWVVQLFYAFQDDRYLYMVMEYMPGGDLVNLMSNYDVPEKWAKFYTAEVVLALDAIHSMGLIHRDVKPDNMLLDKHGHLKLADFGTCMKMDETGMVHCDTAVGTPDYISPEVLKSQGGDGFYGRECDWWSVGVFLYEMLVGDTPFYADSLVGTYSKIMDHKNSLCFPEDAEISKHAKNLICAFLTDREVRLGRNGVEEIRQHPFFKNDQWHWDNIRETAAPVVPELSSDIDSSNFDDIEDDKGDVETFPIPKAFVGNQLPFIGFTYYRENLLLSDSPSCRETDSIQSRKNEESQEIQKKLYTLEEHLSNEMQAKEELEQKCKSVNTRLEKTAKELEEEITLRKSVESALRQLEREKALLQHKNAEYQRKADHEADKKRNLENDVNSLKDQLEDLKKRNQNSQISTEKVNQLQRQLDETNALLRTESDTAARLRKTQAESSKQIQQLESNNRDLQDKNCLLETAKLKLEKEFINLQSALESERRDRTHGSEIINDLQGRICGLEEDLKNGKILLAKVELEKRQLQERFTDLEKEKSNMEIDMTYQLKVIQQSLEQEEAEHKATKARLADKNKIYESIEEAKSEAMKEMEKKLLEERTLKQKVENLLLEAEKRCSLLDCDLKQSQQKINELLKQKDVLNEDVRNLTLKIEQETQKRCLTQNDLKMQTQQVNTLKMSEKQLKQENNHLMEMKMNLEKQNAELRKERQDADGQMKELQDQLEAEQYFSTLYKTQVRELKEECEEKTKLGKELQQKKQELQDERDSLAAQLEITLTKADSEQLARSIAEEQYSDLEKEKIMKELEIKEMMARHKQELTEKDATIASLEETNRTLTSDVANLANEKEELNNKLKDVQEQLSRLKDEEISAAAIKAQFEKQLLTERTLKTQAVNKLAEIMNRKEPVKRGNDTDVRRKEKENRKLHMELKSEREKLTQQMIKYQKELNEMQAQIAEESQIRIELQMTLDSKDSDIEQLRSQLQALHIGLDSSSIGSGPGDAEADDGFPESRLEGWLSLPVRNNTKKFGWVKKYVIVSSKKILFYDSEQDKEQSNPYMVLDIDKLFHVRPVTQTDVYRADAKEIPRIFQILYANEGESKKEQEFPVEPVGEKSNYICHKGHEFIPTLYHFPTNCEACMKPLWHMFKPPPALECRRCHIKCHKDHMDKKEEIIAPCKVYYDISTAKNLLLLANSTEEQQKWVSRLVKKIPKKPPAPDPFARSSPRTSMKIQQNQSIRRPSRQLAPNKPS

| pIC50 | SMILES |
| --- | --- |
| 5.82 | N#Cc1cnc(NC2CC3(C2)CC(Oc2ncccc2C(N)=O)C3)nc1 (stereo not given) |
| 7.21 | COc1ccc2ncnc(NC3CC4(C3)CC(Oc3ncccc3C(N)=O)C4)c2c1 (stereo not given) |
| 7.12 | NC(=O)c1cccnc1OC1CC2(CC(Nc3nc4c(Cl)cccc4s3)C2)C1 (stereo not given) |
| 7.82 | COc1cnc(NC2CC3(C2)CC(Oc2ncccc2C(N)=O)C3)c2cc(Cl)ccc12 (stereo not given) |
| 7.77 | COc1ccc2c(NC3CC4(C3)CC(Oc3ncccc3C(N)=O)C4)nccc2c1 (stereo not given) |

From ChEMBL document CHEMBL4433241, “Potential of ROCK Inhibitors as Treatment for Cardiovascular Diseases, Cancer, and More” (ACS Med Chem Lett, 2019)
